Experimental data reported in article PMC11845477, “Exploring the principles behind antibiotics with limited resistance” (Nature Communications, 2025).

What was measured:
[1] = test system: E. coli ATCC 25922 (SEN) and E. coli NCTC13846 (MDR); assay: microbe, parasite or virus in culture; assay type: cell-based, Escherichia coli; details: for MIC of ancestor: ancestor strain; for MIC: Escherichia coli, across three biological replicates
Protocol: This study focused on multiple bacterial strains, as follows. For the FoR and ALE experiments, 2 strains per species were chosen: E. coli ATCC 25922, K. pneumoniae ATCC 10031, A. baumannii ATCC 17978, and P. aeruginosa ATCC BAA-3107 as sensitive (SEN) strains, and E. coli NCTC13846, K. pneumoniae ATCC 700603, A. baumannii ATCC BAA-1605 and P. aeruginosa LESB58 as multi-drug resistant (MDR) strains. Functional metagenomic screens were performed with E. coli ATCC 25922 and K. pneumoniae ATCC 10031 strains. To determine the dose-kill properties of the different antibiotics, an E. coli strain (ATCC 25922) expressing a yellow fluorescent protein (pZS2R, YFP, CHL^R) and a red fluorescent protein (pZS2R, mCherry, CHL^R) was used.
Unless otherwise indicated, cation-adjusted Mueller-Hinton Broth 2 (MHB, Millipore) medium was used throughout the study, except for SCH79797 (SCH).
(§1) A robotic liquid handling system was used to automatically prepare a 11 to 16-step serial dilution in 384-well microtiter plates (Greiner). A final concentration of 5 × 10^5 bacterial cells per mL were inoculated into each well containing 60 µL MHB medium. Bacterial cultures were incubated at 37 °C with continuous shaking (Infors shaker, 900 rpm with 3 mm throw) for 18 hours (2 replicates from each). Cell growth was monitored by measuring the optical density (OD600 values, using Biotek Synergy microplate reader). MIC was defined as the antibiotic concentration of complete growth inhibition (i.e., OD600 < 0.05). Relative MIC was calculated as follows:1 relativeMIC=MICevolved/MICancestor

[2] = test system: P. aeruginosa ATCC BAA-3107 (SEN) and P. aeruginosa LESB58 (MDR); assay: Adaptive laboratory evolution (ALE), relative MIC of evolved lines; assay type: cell-based, Pseudomonas aeruginosa; details: for Relative MIC (log10): PA-SEN (Pseudomonas aeruginosa ATCC BAA 3107)
Text: Using the same set of bacterial strains, we initiated adaptive laboratory evolution with the aim to maximize the level of antibiotic resistance in the populations achieved during a longer, but fixed time period.
An established protocol for adaptive laboratory evolution[46],[73] was followed to propagate populations with the highest resistance levels. Starting with an antibiotic concentration that caused approximately 50% growth inhibition, ten parallel populations for each antibiotic-ancestor strain combination were grown for 72 hours at 37 °C with continuous shaking (300 RPM). MHB broth medium was used unless stated otherwise. After each incubation, 20 µl of each culture was transferred to four new wells containing fresh medium with increasing antibiotic concentrations (0.5×, 1×, 1.5×, and 2.5× the previous concentration) in a chessboard layout to monitor potential cross-contamination. Growth was monitored by measuring OD600 using a Biotek Synergy 2 microplate reader, and only populations grown in the highest drug concentration with an OD600 > 0.2 were transferred further.
as §1, with “relativeMIC=MICevolved/MICancestor […]” for “relativeMIC=MICevolved/MICancestor”
Supplementary Figure 4. Resistance levels following adaptive laboratory evolution across bacterial strains. The level of resistance was measured as the fold change in relative MIC between evolved and ancestral strains after ~60 days of adaptive laboratory evolution. Data are grouped by bacterial strain (A. baumannii (AB), E. coli (EC), K. pneumoniae (KP), and P. aeruginosa (PA)) and categorized as either multidrug-resistant (MDR) or sensitive (SEN). Each data point represents a laboratory evolved line, and boxplots show the median, first and third quartiles, with whiskers indicating the 5th and 95th percentiles.
Statistical analysis was performed using two-sided Dunn’s post-hoc test with Benjamini-Hochberg correction for multiple comparisons (****/ ***/ **/ * indicates p < 0.0001/ 0.001/ 0.01/ 0.05). For detailed information on antibiotic and bacterial species, see Supplementary Table 1. For mode of action groups, refer to Table 1. Source data are provided as a Source Data file.

[3] = Escherichia coli ATCC 25922 (EC-SEN)

C[C@H]1c2cccc(O)c2C(=O)C2=C(O)[C@]3(O)C(=O)C(C(N)=O)=C(O)[C@@H](N(C)C)[C@@H]3[C@@H](O)[C@@H]21 [Doxycycline]
1 µg/mL: MIC of ancestor [1, 3] | MIC of ancestor ([1]; Escherichia coli ATCC 25922 (EC-SEN), sheet fig 2a) | MIC [1, 3]
256 µg/mL: MIC of evolved line ([2]; PA-SEN (ATCC BAA 3107), evolved line 2) | MIC of evolved line ([2]; PA-SEN (ATCC BAA 3107), evolved line 3) | MIC of evolved line ([2]; PA-SEN (ATCC BAA 3107), evolved line 4) | MIC of evolved line ([2]; PA-SEN (ATCC BAA 3107), evolved line 5) | MIC of evolved line ([2]; PA-SEN (ATCC BAA 3107), evolved line 6) | MIC of evolved line ([2]; PA-SEN (ATCC BAA 3107), evolved line 7) | MIC of evolved line ([2]; PA-SEN (ATCC BAA 3107), evolved line 8) | MIC of evolved line ([2]; PA-SEN (ATCC BAA 3107), evolved line 9) | MIC of evolved line ([2]; PA-SEN (ATCC BAA 3107), evolved line 10) | MIC of evolved line ([2]; PA-SEN ATCC BAA 3107, evolved line 1)
16 µg/mL: MIC ([1]; Escherichia coli NCTC 13846 (EC-MDR))
1.806: Relative MIC (log10) ([2]; evolved line 1 adapted to the named antibiotic) | Relative MIC (log10) ([2]; evolved line 3 adapted to the named antibiotic) | Relative MIC (log10) ([2]; evolved line 5 adapted to the named antibiotic) | Relative MIC (log10) ([2]; evolved line 7 adapted to the named antibiotic) | Relative MIC (log10) ([2]; evolved line 9 adapted to the named antibiotic)
64: Relative MIC ([2]; PA-SEN (ATCC BAA 3107), evolved line 1, MIC of evolved line / MIC of ancestor) | Relative MIC ([2]; PA-SEN (ATCC BAA 3107), evolved line 2, MIC of evolved line / MIC of ancestor) | Relative MIC ([2]; PA-SEN (ATCC BAA 3107), evolved line 3, MIC of evolved line / MIC of ancestor) | Relative MIC ([2]; PA-SEN (ATCC BAA 3107), evolved line 4, MIC of evolved line / MIC of ancestor) | Relative MIC ([2]; PA-SEN (ATCC BAA 3107), evolved line 5, MIC of evolved line / MIC of ancestor) | Relative MIC ([2]; PA-SEN (ATCC BAA 3107), evolved line 6, MIC of evolved line / MIC of ancestor) | Relative MIC ([2]; PA-SEN (ATCC BAA 3107), evolved line 7, MIC of evolved line / MIC of ancestor) | Relative MIC ([2]; PA-SEN (ATCC BAA 3107), evolved line 8, MIC of evolved line / MIC of ancestor) | Relative MIC ([2]; PA-SEN (ATCC BAA 3107), evolved line 9, MIC of evolved line / MIC of ancestor) | Relative MIC ([2]; PA-SEN (ATCC BAA 3107), evolved line 10, MIC of evolved line / MIC of ancestor) | Relative MIC ([2]; Pseudomonas aeruginosa ATCC BAA 3107 (PA-SEN), evolved line 1) | Relative MIC ([2]; Pseudomonas aeruginosa ATCC BAA 3107 (PA-SEN), evolved line 2) | Relative MIC ([2]; Pseudomonas aeruginosa ATCC BAA 3107 (PA-SEN), evolved line 3) | Relative MIC ([2]; Pseudomonas aeruginosa ATCC BAA 3107 (PA-SEN), evolved line 4) | Relative MIC ([2]; Pseudomonas aeruginosa ATCC BAA 3107 (PA-SEN), evolved line 5) | Relative MIC ([2]; Pseudomonas aeruginosa ATCC BAA 3107 (PA-SEN), evolved line 6) | Relative MIC ([2]; Pseudomonas aeruginosa ATCC BAA 3107 (PA-SEN), evolved line 7) | Relative MIC ([2]; Pseudomonas aeruginosa ATCC BAA 3107 (PA-SEN), evolved line 8) | Relative MIC ([2]; Pseudomonas aeruginosa ATCC BAA 3107 (PA-SEN), evolved line 9) | Relative MIC ([2]; Pseudomonas aeruginosa ATCC BAA 3107 (PA-SEN), evolved line 10)
